Experimental data from patent publication US20230015532A1, “PHARMACEUTICAL COMPOSITION, FOR PREVENTING OR TREATING FIBROSIS, COMPRISING PHEOPHORBIDE COMPOUND AS ACTIVE INGREDIENT” (PAEAN BIOTECHNOLOGY INC., priority 2019, published 2023).

How the values were obtained:
[1] = tested on: collagen 1A in CCD8-Lu cells; assay: Anti-fibrotic activity by immunocytochemistry staining (Experimental Example 3.2); format: cell-based, human; details: 6 hours after 5 ng/ml TGF-β
Description: A cell-based assay experiment was performed to analyze the anti-fibrotic activity of pheophorbide a obtained in Preparation Example 2, using immunocytochemistry staining method.
CCD8-Lu cells, which are human lung-derived fibroblasts, were cultured in the DMEM medium containing 10% FBS. About 2×10^4 cells were then inoculated into a 24 well plate and cultured for 24 hours, and subjected to the deficient condition in the DMEM medium from which FBS was removed for about 24 hours.
After 24 hours, following the treatment with TGF-β at a concentration of 5 ng/ml, fibrosis of cells was induced for 6 hours. After 6 hours, the cells were treated with pheophorbide a obtained in Preparation Example 2 and further cultured for 18 hours (FIG. 2). Then, the negative control group was treated with nothing, the positive control group was treated with TGF-β alone at a concentration of 5 ng/ml, and the experimental groups were treated with TGF-β at a concentration of 5 ng/ml and 6 hours later, with pheophorbide a at each concentration of 0.15 μM, 0.3 μM, 0.6 μM, 1.2 μM, 2.5 μM and 5 μM.
Immunohistochemistry analysis for each sample was performed as follows. […] The nuclei were stained using DAPI (4,6-diamidino-2-phenylindole) and the difference in the intensity of fluorescence was analyzed using a fluorescence microscope.

[2] = tested on: phosphorylated Smad3 and phosphorylated ERK in CCD8-Lu cells; assay: Western blotting of phosphorylated proteins of TGF-β signaling (Experimental Example 5); format: cell-based, human; details: 5 μM, 6 hours after 5 ng/ml TGF-β
Description: A cell-based assay experiment was performed using Western blotting assay to determine the effect of pheophorbide a on phosphorylation in the TGF-β signaling pathway. CCD8-Lu cells, which are human lung-derived fibroblasts, were cultured in the DMEM medium containing 10% FBS. About 2×10^5 cells were then inoculated into a 6 well plate, cultured for 24 hours, and subjected to the deficient condition in the DMEM medium from which FBS was removed for about 24 hours. 24 hours later, following the treatment with TGF-β at a concentration of 5 ng/ml, fibrosis of cells was induced for 6 hours. Then, the cells were treated with pheophorbide a obtained in Preparation Example 2 or the therapeutic agent for pulmonary fibrosis and further cultured for 18 hours. Then, the negative control group was treated with nothing, the positive control group was treated with TGF-β alone at a concentration of 5 ng/ml, and the experimental groups were treated with TGF-β at a concentration of 5 ng/ml and 6 hours later, with pheophorbide a at a concentration of 5 μM and nintedanib at a concentration of 1 μM, respectively. […] The separated supernatant was obtained and transferred to a new microtube and then the protein was quantified using a bicinchoninic acid assay (BCA assay) protein quantitative kit. […]

Substance: pheophorbide a
- increased expression of collagen 1A induced by TGF-β ([1]; 0.15-5 μM, fluorescence intensity): largely inhibited
- inhibitory effect on the increased expression of collagen 1A induced by TGF-β ([1]; concentration of 2.5 μM or more): most excellent inhibitory effect
- expression of phosphorylated Smad3 and phosphorylated ERK induced by TGF-β [2]: remarkably inhibited
